Source: patent US5985871A, “Benzoxazine compounds for enhancing synaptic response” (Cortex Pharmaceuticals, Inc., priority 1997, dated 1999)

Columns and labels:
AMPA receptors = assay: field EPSP response in rat hippocampal slices; format: cell-based; details: for EPSP response, in words: comment on Table 1
Protocol: Hippocampal tissue slices were perfused with artificial cerebrospinal fluid containing increasing concentrations of test compound at 15-30 minute intervals separated by perfusion with ACSF without the test compound, and the percent increases in EPSP amplitude and half-width before and after compound perfusion were determined.
The physiological effects of compounds in accordance with the invention can be tested in vitro with slices of rat hippocampus according to the following procedure. Excitatory responses (field EPSPs) are measured in hippocampal slices, which are maintained in a recording chamber continuously perfused with artificial cerebrospinal fluid (ACSF). During a 15-30 minute interval, the perfusion medium is switched to one containing various concentrations of the test compounds. Responses collected immediately before and at the end of drug perfusion were superimposed in order to calculate both the percent increase in EPSP amplitude and percent increase in the width of the response at one-half the peak height (half-width). An increase in either measure, that is, of the amplitude or half-width, can be used as an indicator of beneficial therapeutic activity.
To conduct these tests, the hippocampus was removed from anesthetized, 2 month old Sprague-Dawley rats and tissue slices (400 micrometers thick) were prepared and maintained in an interface chamber at 35° C. using conventional techniques [see, for example, Dunwiddie and Lynch, J. Physiol. […] A bipolar nichrome stimulating electrode was positioned in the dendritic layer (stratum radiatum) of the hippocampal subfield CA1 close to the border of subfield CA3.
Current pulses (0.1 msec) through the stimulating electrode activate a population of the Schaffer-commissural (SC) fibers, which arise from neurons in the subdivision CA3 and terminate in synapses on the dendrites of CA1 neurons. Activation of these synapses causes them to release the transmitter glutamate. Glutamate binds to the post-synaptic AMPA receptors which then transiently open an associated ion channel and permit a sodium current to enter the postsynaptic cell. This current results in a voltage in the extracellular space (the field excitatory post-synaptic potential or field "EPSP") which is recorded by a high impedance recording electrode positioned in the middle of the stratum radiatum of CA1.
For the experiments summarized in Table 1, the intensity of the stimulation current was adjusted to produce half-maximal EPSPs (typically about 1.5-2.0 mV). Paired stimulation pulses were given every 40 sec with an interpulse interval of 200 msec (see below). The field EPSPs of the second response were digitized and analyzed to determine amplitude, half-width, and response area. If the responses were stable for 15-30 minutes (baseline), test compounds were added to the perfusion lines for a period of about 20 minutes. The perfusion was then changed back to regular ACSF.
Paired-pulse stimulation was used because stimulation of the SC fibers, in part, activates interneurons that generate an inhibitory postsynaptic potential (IPSP) in the pyramidal cells of CA1. This feed forward IPSP typically sets in after the EPSP reaches its peak. It accelerates the repolarization and shortens the decay phase of the EPSP, and thus could partially mask the effects of the test compounds. One of the relevant features of the feed-forward IPSP is that it can not be reactivated for several hundred milliseconds following a stimulation pulse. This phenomenon can be employed to advantage to eliminate IPSP by delivering paired pulses separated by 200 milliseconds and using the second ("primed") response for data analysis.

rats = assay: 8-arm radial maze memory test; format: in vivo, rat; details: for Maze MED (Minimum Effective Dose) / minimal effective dose: threshold dose for enhancing memory in rats, 8-arm radial maze; for minimal effective dose: Rattus norvegicus, read-out: Maze MED (Minimum Effective Dose)
Protocol: The right bar of each pair represents the results for the same animals administered vehicle alone on alternate days of testing.
All of the data in FIG. 1 were obtained using the same group of ten rats. […] In other words, vehicle alone was administered to the group on days 1, 3 and 5, and compound at a selected dosage was administered on days 2 and 4. […] Error bars indicate the standard error of the mean (SEM). The asterisks (*) in the figure indicate data wherein p<0.05 by the paired t test.

[1] = peripheral administration in humans; Guenzi and Zanetti 1990; cited from earlier work
brain AMPA receptors = details: metabolite of aniracetam; cited from earlier work
[2] = compound concentration 30 μM, rat hippocampal slice, field CA1
[3] = compound concentration 100 μM, rat hippocampal slice, field CA1

## O=C1c2cc3c(cc2OC2OCCN12)OCO3 (racemic) [Compound 1, 7,8-Dihydro-5aH, 10H-1,3-dioxolo[4,5-g]oxazolo[2,3-b][1,3]benzoxazin-10-one]
AMPA receptors; [2]
  EPSP Response (percent increase in amplitude of the EPSP response): 34%
AMPA receptors; compound concentration 50 μM, resolved enantiomers of compound 1
  EPSP Response (percent increase in amplitude of the EPSP response): 80%
rats; FIG. 1, 0.03, 0.1 and 0.5 mg/kg versus vehicle, ten rats
  average total number of errors: significant, dose-dependent reduction
rats; FIG. 1, 0.03, 0.1 and 0.5 mg/kg versus vehicle, ten rats, retention phase
  average number of correct choices before the first error: significant, dose-dependent increase
rats
  Maze MED (Minimum Effective Dose): 0.05 mg/kg

## O=C1c2cc3c(cc2OC2OCCN12)OCO3 (single isomer, unassigned) [Column Fraction 1]
AMPA receptors; compound concentration 50 μM, resolved enantiomers of compound 1, listed as first-eluting enantiomer
  EPSP Response (percent increase in amplitude of the EPSP response): 80%
rats; listed as active enantiomer of compound 1
  Maze MED (Minimum Effective Dose): 0.01 mg/kg

## O=C1c2cc3c(cc2OC2OCCN12)OCO3 (single isomer, unassigned) [Column Fraction 2]
AMPA receptors; compound concentration 50 μM, resolved enantiomers of compound 1, listed as second-eluting enantiomer
  EPSP Response (percent increase in amplitude of the EPSP response): does not detectably change
rats; enantiomers of compound 1, maze test
  MED of less active enantiomer relative to active enantiomer: 50 fold
rats; listed as less active enantiomer
  Maze MED (Minimum Effective Dose): 0.5 mg/kg

## CC1CN2C(=O)c3cc4c(cc3OC2O1)OCO4 (single isomer, unassigned) [Compound 5.1, 7,8-Dihydro-7-methyl-5aH, 10H-1,3-dioxolo[4,5-g]oxazolo[2,3-b][1,3]benzoxazin-10-one]
AMPA receptors; [2]
  EPSP Response (percent increase in amplitude of the EPSP response): 14%

## CC1CN2C(=O)c3cc4c(cc3OC2O1)OCO4 (single isomer, unassigned) [Compound 5.2, 7,8-Dihydro-7-methyl-5aH, 10H-1,3-dioxolo[4,5-g]oxazolo[2,3-b][1,3]benzoxazin-10-one]
AMPA receptors; [2]
  EPSP Response (percent increase in amplitude of the EPSP response): 10%

## O=C1c2cc3c(cc2OC2CCCN12)OCO3 (centres unmarked) [Compound 1c, reference compound]
AMPA receptors; [3]
  EPSP Response (percent increase in amplitude of the EPSP response): 25%
rats
  minimal effective dose: 1 mg/kg

## O=C(NCCO)c1cc2c(cc1O)OCO2 [Compound 1i, 2-(2-Hydroxy-4,5-methylenedioxybenzamido)ethanol]
AMPA receptors
  EPSP response, in words: increased EPSP response
AMPA receptors; [3]
  EPSP Response (percent increase in amplitude of the EPSP response): 8%

## O=C1c2cc3c(cc2OC2OCCN12)OCCO3 (centres unmarked) [Compound 2, 8,9-Dihydro-6aH, 11H-1,4-dioxan[2,3-g]oxazolo[2,3-b][1,3]benzoxazin-11-one]
AMPA receptors; compound concentration 5 μM, rat hippocampal slice, field CA1
  EPSP Response (percent increase in amplitude of the EPSP response): 35%
rats
  minimal effective dose: 0.01 mg/kg

## O=C1c2cc3c(cc2OC2CCCN12)OCCO3 (centres unmarked) [Compound 2c, reference compound]
AMPA receptors; compound concentration >30 μM, rat hippocampal slice, field CA1
  EPSP Response (percent increase in amplitude of the EPSP response): 25%
rats
  minimal effective dose: 0.1 mg/kg

## CC1(C)Oc2cc3c(cc2O1)C(=O)N1CCOC1O3 (centres unmarked) [Compound 3, 7,8-Dihydro-2,2-dimethyl-5aH, 10H-1,3-dioxolo[4,5-g]oxazolo[2,3-b][1,3]benzoxazin-10-one]
AMPA receptors; [2]
  EPSP Response (percent increase in amplitude of the EPSP response): 33%

## O=C1c2cc3c(cc2OC2SCCN12)OCO3 (centres unmarked) [Compound 4, 7,8-Dihydro-5aH, 10H-1,3-dioxolo[4,5-g]thiazolo[2,3-b][1,3]benzoxazin-10-one]
AMPA receptors
  EPSP response, in words: About the same activity
AMPA receptors; [2]
  EPSP Response (percent increase in amplitude of the EPSP response): 20%

## CC1COC2Oc3cc4c(cc3C(=O)N12)OCO4 (centres unmarked) [Compound 6, 7,8-Dihydro-8-methyl-5aH, 10H-1,3-dioxolo[4,5-g]oxazolo[2,3-b][1,3]benzoxazin-10-one]
AMPA receptors; [3]
  EPSP Response (percent increase in amplitude of the EPSP response): 10%

## O=C1c2cc3c(cc2OC2OCCCN12)OCO3 (centres unmarked) [Compound 7, 8,9-Dihydro-5aH, 7H, 10H-1,3-dioxolo[4,5-g][1,3]oxazino[2,3-b][1,3]benzoxazin-11-one]
AMPA receptors; [2]
  EPSP Response (percent increase in amplitude of the EPSP response): 15%

## O=C1c2cc3c(cc2OC2CCCCN12)OCO3 (centres unmarked) [Compound 7c, reference compound]
AMPA receptors; compound concentration 300 μM, rat hippocampal slice, field CA1
  EPSP Response (percent increase in amplitude of the EPSP response): 25%

## CC12OCCN1C(=O)c1cc3c(cc1O2)OCO3 (centres unmarked) [Compound 8, 7,8-Dihydro-5a-methyl-10H-1,3-dioxolo[4,5-g]oxazolo[2,3-b][1,3]benzoxazin-10-one]
AMPA receptors; [3]
  EPSP Response (percent increase in amplitude of the EPSP response): 8%

## COc1ccc(C(=O)N2CCCC2=O)cc1 [aniracetam, N-anisoyl-2-pyrrolidinone]
[1]
  fraction of drug converted to anisoyl-GABA: about 80%

## COc1ccc(C(=O)NCCCC(=O)O)cc1 [anisoyl-GABA]
Brain AMPA receptors
  aniracetam-like effects: only weak aniracetam-like effects
